Test results published in paper PMC6327852 (Journal of cellular physiology, 2016).

What was measured:
[1] = test system: influenza A and B viruses; test: Influenza virus-mediated cell lysis, live/dead assay in MRC5 cells; assay type: cell-based, human
Ebola virus = assay type: cell-based
Junin virus (JUNV) = assay type: cell-based
[2] = test system: rabbit hemorrhagic disease virus (RHDV); test: Rabbit hemorrhagic fever virus studies; assay type: in vivo
NPC1 and TIM1 = assay type: cell-based
[3] = test system: glucosidase I, glucosidase IIα, glucosidase IIβ; test: Immuno-fluorescence of glucosidases in GBM12 cells; assay type: cell-based; conditions: 2.0 μM, 6 h
[4] = test system: mTOR Serine 2448 phosphorylation; assay type: cell-based; conditions: GBM5 cells, single agent 2.0 μM, 6 h
HSP70 ATPase = HSP70 ATPase (Homo sapiens, UniProt P0DMV8); test: ATPase activity of immuno-precipitated HSP70-GFP; conditions: 30 nM - 1 μM, 30 min at 37 °C
HSP70 ATPase, sequence (P0DMV8 whole entry): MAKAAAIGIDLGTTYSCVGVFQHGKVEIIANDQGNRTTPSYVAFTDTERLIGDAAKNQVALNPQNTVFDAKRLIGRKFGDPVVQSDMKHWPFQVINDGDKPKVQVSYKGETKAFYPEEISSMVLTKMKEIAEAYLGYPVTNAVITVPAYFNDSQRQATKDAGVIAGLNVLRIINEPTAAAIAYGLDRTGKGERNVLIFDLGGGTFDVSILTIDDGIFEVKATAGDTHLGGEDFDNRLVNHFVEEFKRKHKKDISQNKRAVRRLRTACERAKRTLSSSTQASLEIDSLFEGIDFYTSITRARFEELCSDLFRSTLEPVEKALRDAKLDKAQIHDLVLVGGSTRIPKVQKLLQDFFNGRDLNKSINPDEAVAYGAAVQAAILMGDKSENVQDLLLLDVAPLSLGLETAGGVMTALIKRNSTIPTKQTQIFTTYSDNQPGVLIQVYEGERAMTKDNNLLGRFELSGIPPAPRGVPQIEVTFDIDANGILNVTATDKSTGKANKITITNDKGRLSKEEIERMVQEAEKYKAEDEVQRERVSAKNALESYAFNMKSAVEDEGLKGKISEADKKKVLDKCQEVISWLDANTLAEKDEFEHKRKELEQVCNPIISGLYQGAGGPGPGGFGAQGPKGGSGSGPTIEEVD

HSP27 = HSP27 (Homo sapiens, UniProt P04792); test: Immuno-fluorescence of HSP27 expression in GBM cells; conditions: GBM5, GBM6, GBM12 cells, 0–3.0 μM, 3 h
HSP27, sequence (P04792 whole entry): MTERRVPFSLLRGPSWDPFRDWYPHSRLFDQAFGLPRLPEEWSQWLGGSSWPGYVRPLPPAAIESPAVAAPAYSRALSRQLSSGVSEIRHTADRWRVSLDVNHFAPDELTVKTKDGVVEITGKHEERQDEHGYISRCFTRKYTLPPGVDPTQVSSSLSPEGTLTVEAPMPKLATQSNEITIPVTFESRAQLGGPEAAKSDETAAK

HSP90 ATPase = test: ATPase activity of immuno-precipitated FLAG-tagged HSP90; conditions: 30 nM - 1 μM, 30 min at 37 °C
HSP90, GRP78, and HSP70 = test: Immuno-fluorescence detection of chaperones in fixed cells; conditions: HuH7 and HT1080, 0–3.0 μM ± sildenafil 2 μM, 2 h

| SMILES | influenza virus-mediated cell lysis / cell killing [1] | Ebola virus replication in vitro (Ebola virus) | JUNV infected cells expressing viral nucleoprotein NP (Junin virus (JUNV)) | replication of different strains of JUNV (Junin virus (JUNV)) | animals that had died ([2]; […], vehicle approximately 70% at 60 h, P < 0.05, 25 mg/kg) | liver damage assessed by H&E staining of liver sections ([2]; rabbits, RHDV, 25 mg/kg x4) | virus-induced increases in plasma ALT, LDH, and GGT levels ([2]; rabbits, RHDV, 25 mg/kg x4) | expression of virus protein VP60 mRNA in liver ([2]; rabbits, RHDV, at the time of animal nadir, quantitative RT-PCR) | expression of Ebola virus receptors NPC1 and TIM1 in vitro (NPC1 and TIM1) | expression of glucosidase I and glucosidase IIα [3] | expression of glucosidase IIβ [3] | mTOR Serine 2448 phosphorylation [4] | presence in mouse brain tissue 48 h after dosing (48 h after dosing) | peak brain concentration (mouse, IV bolus 10 mg/kg) [µM] | time to cross the blood brain barrier after dosing (mouse, IV bolus 10 mg/kg) [min] | effect on HSP70 ATPase activity (HSP70 ATPase) | expression of HSP27 (HSP27) | effect on HSP90 ATPase activity (HSP90 ATPase) | detection of HSP90, GRP78, and HSP70 in fixed in situ cells (HSP90, GRP78, and HSP70) |
| --- | --- | --- | --- | --- | --- | --- | --- | --- | --- | --- | --- | --- | --- | --- | --- | --- | --- | --- | --- |
| NCC(=O)Nc1ccc(-n2nc(C(F)(F)F)cc2-c2ccc3c(ccc4ccccc43)c2)cc1 [AR-12] | reduced cell lysis / cell killing | suppressed the replication | drastically reduced | potently inhibited | approximately 30% | reduced obvious liver damage | significantly reduced | less expression | reduced the expression | rapidly reduced the expression | did not impact | strongly reduced | still detectable | 2 | ≤ 5 | inhibitory effects | reduced | inhibitory effects | rapid dose- and time-dependent reduction |
| Cc1ccc(Nc2nccc(N(C)c3ccc4c(C)n(C)nc4c3)n2)cc1S(N)(=O)=O [pazopanib] | reduced cell lysis / cell killing | – | – | – | – | – | – | – | – | – | – | – | – | – | – | inhibitory effects | – | inhibitory effects | – |
| CNC(=O)c1cc(Oc2ccc(NC(=O)Nc3ccc(Cl)c(C(F)(F)F)c3)cc2)ccn1 [sorafenib, reference compound] | reduced cell lysis / cell killing | – | – | – | – | – | – | – | – | rapidly reduced the expression | did not impact | – | – | – | – | inhibitory effects | reduced | inhibitory effects | – |
